Common to all, as to type: biochemical
The target of one test is T1, BTK-WT (Homo sapiens, UniProt Q06187).
T1 construct: purified from insect cells as a full-length construct containing an N-terminal 6X-His tag; His6 (N); made in house; host or cells: insect cells (baculovirus Sf21 in Method B)
Nature of the test: Btk in vitro inhibitory activity (one of Method A TR-FRET, Method B electrophoretic mobility shift, Method C radiometric filter binding). Background: In EMSA bound probe runs differently from free probe, usually more slowly.

In the next test the target is LCK (Homo sapiens, UniProt P06239). Briefly: Inhibition of a panel of kinases, in vitro HotSpot kinase assay: LCK. As to conditions: for IC50: 1 μM ATP, read-out: IC50 LCK; for LCK* IC50 relative to Btk IC50 value: fold relative to Btk IC50 value.
Another test deals with T2, ITK (Homo sapiens, UniProt Q08881).
T2 sequence (Q08881 1-620): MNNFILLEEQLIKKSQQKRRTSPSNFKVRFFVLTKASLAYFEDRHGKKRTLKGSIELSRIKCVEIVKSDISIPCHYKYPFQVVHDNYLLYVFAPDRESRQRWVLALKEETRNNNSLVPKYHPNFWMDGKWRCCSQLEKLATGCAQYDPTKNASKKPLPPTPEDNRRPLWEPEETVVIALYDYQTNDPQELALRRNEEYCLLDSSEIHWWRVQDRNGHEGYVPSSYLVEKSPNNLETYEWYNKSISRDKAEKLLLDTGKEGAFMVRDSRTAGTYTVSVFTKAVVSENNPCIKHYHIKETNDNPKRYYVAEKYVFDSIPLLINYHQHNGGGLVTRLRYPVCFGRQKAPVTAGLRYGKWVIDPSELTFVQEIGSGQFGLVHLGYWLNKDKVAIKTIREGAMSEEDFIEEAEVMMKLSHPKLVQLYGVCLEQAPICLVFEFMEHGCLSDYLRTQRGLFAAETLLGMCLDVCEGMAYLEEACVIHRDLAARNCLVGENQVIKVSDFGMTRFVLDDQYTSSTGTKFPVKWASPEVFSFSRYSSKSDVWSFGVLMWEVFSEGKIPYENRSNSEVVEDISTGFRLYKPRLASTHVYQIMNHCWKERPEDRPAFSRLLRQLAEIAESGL
Nature of the test: Inhibition of a panel of kinases, in vitro HotSpot kinase assay: ITK. Particulars: for IC50: 1 μM ATP; for ITK* IC50 relative to Btk IC50 value: fold relative to Btk IC50 value. The procedure: (§1) The degree of inhibition of a panel of kinases is determined using the in vitro HotSpot kinase assay (purified enzymes, ^33P-ATP, an appropriate substrate and 1 μM ATP).

For another test, the target named is EGFR (Homo sapiens, UniProt P00533). Briefly: Inhibition of a panel of kinases, in vitro HotSpot kinase assay: EGFR. Particulars: for IC50: 1 μM ATP; for EGFR* IC50 relative to Btk IC50 value: fold relative to Btk IC50 value. How it is done: as §1
A further test addresses T3, TEC (Homo sapiens, UniProt P42680).
T3 sequence (P42680 1-631): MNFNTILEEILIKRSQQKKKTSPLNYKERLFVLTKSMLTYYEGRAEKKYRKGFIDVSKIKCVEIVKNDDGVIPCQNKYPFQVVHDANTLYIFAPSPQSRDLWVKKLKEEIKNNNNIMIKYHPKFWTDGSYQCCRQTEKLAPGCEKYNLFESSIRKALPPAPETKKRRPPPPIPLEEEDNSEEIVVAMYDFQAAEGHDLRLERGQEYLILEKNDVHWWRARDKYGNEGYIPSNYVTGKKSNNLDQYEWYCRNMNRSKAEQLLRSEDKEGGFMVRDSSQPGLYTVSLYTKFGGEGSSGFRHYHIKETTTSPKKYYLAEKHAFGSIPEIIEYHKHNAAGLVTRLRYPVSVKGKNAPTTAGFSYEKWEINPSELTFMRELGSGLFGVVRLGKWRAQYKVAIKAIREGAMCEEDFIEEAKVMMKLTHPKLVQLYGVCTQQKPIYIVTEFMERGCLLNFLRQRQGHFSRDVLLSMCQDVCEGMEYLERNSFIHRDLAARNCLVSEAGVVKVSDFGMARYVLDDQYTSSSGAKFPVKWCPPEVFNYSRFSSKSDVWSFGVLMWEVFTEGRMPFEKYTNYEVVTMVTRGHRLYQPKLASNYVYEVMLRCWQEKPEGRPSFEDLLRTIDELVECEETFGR
Nature of the test: Inhibition of a panel of kinases, in vitro HotSpot kinase assay: TEC. As to conditions: for IC50: 1 μM ATP; for TEC* IC50 relative to Btk IC50 value: fold relative to Btk IC50 value. The procedure: as §1

The mark [1] stands for this setting: Table 15, C compounds, read-out: IC50 BTK-WT.

Like-named read-outs stand apart in the source and are kept apart here.

Chain of LCK (P06239 whole entry): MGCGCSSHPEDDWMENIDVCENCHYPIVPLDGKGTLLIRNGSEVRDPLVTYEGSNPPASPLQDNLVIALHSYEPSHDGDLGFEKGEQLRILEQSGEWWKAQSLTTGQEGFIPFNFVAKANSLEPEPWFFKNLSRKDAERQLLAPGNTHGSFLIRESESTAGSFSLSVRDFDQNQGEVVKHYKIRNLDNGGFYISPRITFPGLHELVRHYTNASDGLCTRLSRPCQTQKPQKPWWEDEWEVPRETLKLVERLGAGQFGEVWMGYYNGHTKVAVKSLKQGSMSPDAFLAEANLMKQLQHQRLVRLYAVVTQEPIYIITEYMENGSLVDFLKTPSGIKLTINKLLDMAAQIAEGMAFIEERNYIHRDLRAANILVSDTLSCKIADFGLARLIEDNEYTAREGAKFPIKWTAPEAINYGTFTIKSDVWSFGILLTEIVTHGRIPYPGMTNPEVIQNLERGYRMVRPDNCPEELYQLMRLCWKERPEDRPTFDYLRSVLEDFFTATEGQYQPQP
Chain of EGFR (P00533 25-1210): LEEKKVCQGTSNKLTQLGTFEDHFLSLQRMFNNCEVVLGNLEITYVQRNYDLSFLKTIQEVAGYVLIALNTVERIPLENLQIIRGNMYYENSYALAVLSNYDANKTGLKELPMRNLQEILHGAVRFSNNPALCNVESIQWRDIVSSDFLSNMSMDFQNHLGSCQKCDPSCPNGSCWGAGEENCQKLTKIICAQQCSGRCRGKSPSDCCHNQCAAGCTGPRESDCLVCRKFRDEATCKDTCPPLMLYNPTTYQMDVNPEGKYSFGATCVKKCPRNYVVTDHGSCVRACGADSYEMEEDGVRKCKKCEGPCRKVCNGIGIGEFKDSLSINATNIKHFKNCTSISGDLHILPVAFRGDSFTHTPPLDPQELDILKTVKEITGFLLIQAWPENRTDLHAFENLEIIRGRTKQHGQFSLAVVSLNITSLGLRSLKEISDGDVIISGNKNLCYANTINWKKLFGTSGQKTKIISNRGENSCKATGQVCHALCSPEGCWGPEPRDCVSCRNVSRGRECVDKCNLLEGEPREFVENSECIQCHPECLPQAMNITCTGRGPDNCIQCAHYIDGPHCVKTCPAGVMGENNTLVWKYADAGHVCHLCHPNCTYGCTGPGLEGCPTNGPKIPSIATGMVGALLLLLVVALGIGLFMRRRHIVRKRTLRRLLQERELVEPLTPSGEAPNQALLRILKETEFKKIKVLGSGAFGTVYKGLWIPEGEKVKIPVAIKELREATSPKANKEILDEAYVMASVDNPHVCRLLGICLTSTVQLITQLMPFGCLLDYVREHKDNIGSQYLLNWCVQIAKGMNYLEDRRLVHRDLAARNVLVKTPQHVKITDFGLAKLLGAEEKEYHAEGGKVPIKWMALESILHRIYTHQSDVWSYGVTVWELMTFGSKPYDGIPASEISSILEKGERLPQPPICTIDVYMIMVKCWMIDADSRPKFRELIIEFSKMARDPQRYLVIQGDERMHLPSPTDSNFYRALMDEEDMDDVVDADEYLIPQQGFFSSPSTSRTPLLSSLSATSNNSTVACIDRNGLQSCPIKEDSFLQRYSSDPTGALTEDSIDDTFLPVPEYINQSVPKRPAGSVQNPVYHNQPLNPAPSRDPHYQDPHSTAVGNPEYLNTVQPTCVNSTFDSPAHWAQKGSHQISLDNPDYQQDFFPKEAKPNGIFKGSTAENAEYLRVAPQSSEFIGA
T1 sequence (Q06187 whole entry): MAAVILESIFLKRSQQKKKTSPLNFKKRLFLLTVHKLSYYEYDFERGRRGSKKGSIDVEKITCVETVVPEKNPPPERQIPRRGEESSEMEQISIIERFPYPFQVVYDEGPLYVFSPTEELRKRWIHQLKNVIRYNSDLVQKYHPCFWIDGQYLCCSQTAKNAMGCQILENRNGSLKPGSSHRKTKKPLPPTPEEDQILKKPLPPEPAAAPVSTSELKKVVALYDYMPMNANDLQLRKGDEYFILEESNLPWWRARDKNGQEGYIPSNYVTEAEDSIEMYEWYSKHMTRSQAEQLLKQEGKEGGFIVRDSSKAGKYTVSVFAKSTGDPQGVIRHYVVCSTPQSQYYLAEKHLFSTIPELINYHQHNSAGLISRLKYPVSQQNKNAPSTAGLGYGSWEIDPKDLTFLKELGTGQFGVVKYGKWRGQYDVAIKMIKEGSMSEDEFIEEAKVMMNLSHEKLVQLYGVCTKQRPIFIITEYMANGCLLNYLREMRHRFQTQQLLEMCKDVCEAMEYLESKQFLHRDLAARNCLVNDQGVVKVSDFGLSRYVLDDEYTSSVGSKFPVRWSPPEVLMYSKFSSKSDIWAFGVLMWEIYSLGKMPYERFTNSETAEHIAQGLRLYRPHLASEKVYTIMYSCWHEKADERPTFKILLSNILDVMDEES

As a reminder, the IC50 is the concentration at which inhibition is half-maximal. For `C=CC(=O)N1CC[C@@H](N(C)c2cnc(C(N)=O)c(Nc3ccc(C4CCN(C5CCCC5)CC4)cc3)n2)C1` [Example C-85, (R)-5-((1-acryloylpyrrolidin-3-yl)(methyl)amino)-3-(4-(1-cyclopentylpiperidin-4-yl)phenylamino) pyrazine-2-carboxamide], the IC50 was no more than 0.01 µM at BTK-WT (setting [1]); 0.1 to 1 µM on LCK (Table 15, C compounds); no more than 0.01 µM on ITK (Table 15, C compounds); 0.01 to 0.1 µM against EGFR (Table 15, C compounds); no more than 0.01 µM on TEC (Table 15, C compounds).

As to `C[C@@H]1[C@H](NC(=O)c2ccc(C3CC3)cc2)CCCN1c1cnc(C(N)=O)c(Nc2cnn(C3CC3)c2)n1` [Example A-205, 3-[(1-cyclopropyl-1H-pyrazol-4-yl)amino]-5-[(2R,3R)-3-(4-cyclopropylbenzamido)-2-methylpiperidin-1-yl]pyrazine-2-carboxamide], at BTK-WT (read-out: BTK-WT IC50), the IC50 was less than 0.01 µM. The “LCK* IC50 relative to Btk IC50 value” at LCK turned out to be 102x. In addition, the “ITK* IC50 relative to Btk IC50 value” at ITK was found to be 135x. The “EGFR* IC50 relative to Btk IC50 value” on EGFR came to 730x. The “TEC* IC50 relative to Btk IC50 value” at TEC stood at 3x.

As for `C[C@@H]1[C@H](NC(=O)c2ccc(C(C)(C)C)cc2)CCCN1c1cnc(C(N)=O)c(Nc2cnn(C)c2)n1` [Example A-203, 5-((2R,3R)-3-(4-tert-butylbenzamido)-2-methylpiperidin-1-yl)-3-(1-methyl-1H-pyrazol-4-ylamino)pyrazine-2-carboxamide], the IC50 at BTK-WT (read-out: BTK-WT IC50) was less than 0.01 µM. Further, the “LCK* IC50 relative to Btk IC50 value” on LCK is listed as 684x. The “ITK* IC50 relative to Btk IC50 value” on ITK was found to be 787x. Moreover, the “EGFR* IC50 relative to Btk IC50 value” at EGFR is reported as 3304x. The “TEC* IC50 relative to Btk IC50 value” on TEC came out at 8x.

Regarding `C=CC(=O)N1CCC[C@@H](Nc2nnc(C(N)=O)c(Nc3cc(C)ns3)n2)C1` [Example C-56, (R)-3-(1-acryloylpiperidin-3-ylamino)-5-(3-methylisothiazol-5-ylamino)-1,2,4-triazine-6-carboxamide], the IC50 at BTK-WT (setting [1]) is no more than 0.01 µM; on LCK (Table 15, C compounds), 0.01 to 0.1 µM; against ITK (Table 15, C compounds) it was no more than 0.01 µM; against EGFR (Table 15, C compounds), no more than 0.01 µM; on TEC (Table 15, C compounds), no more than 0.01 µM.

For `C[C@@H]1[C@H](NC(=O)c2ccc(C3COC3)cc2)CCCN1c1cnc(C(N)=O)c(Nc2cnn(C)c2)n1` [Example A-206, 3-(1-methyl-1H-pyrazol-4-ylamino)-5-((2R,3R)-2-methyl-3-(4-(oxetan-3-yl)benzamido)piperidin-1-yl)pyrazine-2-carboxamide], the IC50 at BTK-WT (read-out: BTK-WT IC50) was less than 0.01 µM. The “LCK* IC50 relative to Btk IC50 value” at LCK is 63x. For the same molecule, on ITK, the “ITK* IC50 relative to Btk IC50 value” was 157x. At EGFR, the “EGFR* IC50 relative to Btk IC50 value” is listed as 896x. Further, the “TEC* IC50 relative to Btk IC50 value” at TEC worked out at 1x.

Take `C=CC(=O)N1CCC[C@@H](Nc2nnc(C(N)=O)c(Nc3ccc(C4CCN(C(=O)CC)CC4)cc3)n2)C1` [Example C-57, (R)-3-(1-acryloylpiperidin-3-ylamino)-5-(4-(1-propionylpiperidin-4-yl)phenylamino)-1,2,4-triazine-6-carboxamide]: the IC50 is no more than 0.01 µM on BTK-WT (setting [1]); 0.01 to 0.1 µM on LCK (Table 15, C compounds); no more than 0.01 µM against ITK (Table 15, C compounds); no more than 0.01 µM on EGFR (Table 15, C compounds); no more than 0.01 µM on TEC (Table 15, C compounds).

Take `C[C@@H]1[C@H](NC(=O)N(C)C)CCCN1c1cnc(C(N)=O)c(Nc2ccc(C(=O)N3CCN(C)CC3)cc2)n1` [Example A-98, 5-[(2R,3R)-3-[(dimethylcarbamoyl)amino]-2-methylpiperidin-1-yl]-3-{[4-(4-methylpiperazine-1-carbonyl)phenyl]amino}pyrazine-2-carboxamide]: the IC50 at BTK-WT (Table 13, A compounds, read-out: IC50 BTK-WT) was no more than 0.01 µM; at LCK (Table 13, A compounds), 0.1 to 1 µM; on ITK (Table 13, A compounds), 1 to 10 µM; against EGFR (Table 13, A compounds), 1 to 10 µM; against TEC (Table 13, A compounds), 0.1 to 1 µM.

For the origin of these results see US20210070748A1, “INHIBITORS OF BRUTONS TYROSINE KINASE” (Pharmacyclics LLC, priority 2015, published 2021).
